In the NIST ThermoML archive (doi:10.1016/j.jct.2006.08.009):

Assay: mn = molality of the nth substance listed, in mol/kg
Conditions: 350 kPa, Liquid; for apparent molar heat capacity: Extra sensitive DSC

O[C@H]1[C@H](O)[C@@H](O)[C@H](O)[C@@H](O)[C@H]1O [cis-1,2,3,5-trans-4,6-cyclohexanehexol] + O
Conditions	apparent molar heat capacity [J/K/mol]	mass density [kg/m3]
278.15 K, m1 = 0.02	255	1001.54
278.15 K, m1 = 0.05	253	1004.04
278.15 K, m1 = 0.0814	256.7	–
278.15 K, m1 = 0.1	267.7	–
278.15 K, m1 = 0.1028	257.3	–
278.15 K, m1 = 0.248	263.1	1020.11
278.15 K, m1 = 0.3973	262.1	1031.74
278.15 K, m1 = 0.4994	269.8	1039.85
283.15 K, m1 = 0.02	287	1001.49
283.15 K, m1 = 0.05	285	1003.92
283.15 K, m1 = 0.0814	292.1	–
283.15 K, m1 = 0.1	295.6	–
283.15 K, m1 = 0.1028	284.4	–
283.15 K, m1 = 0.248	290.5	1019.58
283.15 K, m1 = 0.3973	289	1030.95
283.15 K, m1 = 0.4994	295.3	1038.94
288.15 K, m1 = 0.02	312	1000.86
288.15 K, m1 = 0.05	312	1003.27
288.15 K, m1 = 0.0814	323	–
288.15 K, m1 = 0.1	319.7	–
288.15 K, m1 = 0.1028	306	–
288.15 K, m1 = 0.248	312.7	1018.73
288.15 K, m1 = 0.3973	311.2	1029.97
288.15 K, m1 = 0.4994	316.4	1037.9
293.15 K, m1 = 0.02	332	–
293.15 K, m1 = 0.05	332	–
293.15 K, m1 = 0.0814	342.6	–
293.15 K, m1 = 0.1	339	–
293.15 K, m1 = 0.1028	326	–
293.15 K, m1 = 0.248	331.5	–
293.15 K, m1 = 0.3973	329.9	–
293.15 K, m1 = 0.4994	334.1	–
298.15 K, m1 = 0.02	347	998.75
298.15 K, m1 = 0.05	348	1001.13
298.15 K, m1 = 0.0814	358.6	1003.66
298.15 K, m1 = 0.1	354.4	–
298.15 K, m1 = 0.1028	343.7	–
298.15 K, m1 = 0.248	347.5	1016.29
298.15 K, m1 = 0.3973	345.6	1027.32
298.15 K, m1 = 0.4994	349.1	1035.14
303.15 K, m1 = 0.02	362	–
303.15 K, m1 = 0.05	362.7	–
303.15 K, m1 = 0.0814	371.2	–
303.15 K, m1 = 0.1	367.4	–
303.15 K, m1 = 0.1028	358.9	–
303.15 K, m1 = 0.248	361.3	–
303.15 K, m1 = 0.3973	359	–
303.15 K, m1 = 0.4994	361.9	–
308.15 K, m1 = 0.02	374	995.69
308.15 K, m1 = 0.05	374.4	998.05
308.15 K, m1 = 0.0814	381.2	1000.51
308.15 K, m1 = 0.1	378.5	1001.45
308.15 K, m1 = 0.1028	371.6	1001.99
308.15 K, m1 = 0.248	373.2	1012.97
308.15 K, m1 = 0.3973	370.4	1023.83
308.15 K, m1 = 0.4994	373	1031.55
313.15 K, m1 = 0.02	386	–
313.15 K, m1 = 0.05	385.5	–
313.15 K, m1 = 0.0814	390.4	–
313.15 K, m1 = 0.1	388.5	–
313.15 K, m1 = 0.1028	382.8	–
313.15 K, m1 = 0.248	383.6	–
313.15 K, m1 = 0.3973	380.5	–
313.15 K, m1 = 0.4994	382.7	–
318.15 K, m1 = 0.02	395	991.86
318.15 K, m1 = 0.05	394.7	994.19
318.15 K, m1 = 0.0814	398.6	996.61
318.15 K, m1 = 0.1	397.3	997.52
318.15 K, m1 = 0.1028	392.5	998.07
318.15 K, m1 = 0.248	392.7	1008.92
318.15 K, m1 = 0.3973	389.4	1019.64
318.15 K, m1 = 0.4994	391.3	1027.27
323.15 K, m1 = 0.02	403	–
323.15 K, m1 = 0.05	402.6	–
323.15 K, m1 = 0.0814	405.9	–
323.15 K, m1 = 0.1	405	–
323.15 K, m1 = 0.1028	401	–
323.15 K, m1 = 0.248	400.7	–
323.15 K, m1 = 0.3973	397.3	–
323.15 K, m1 = 0.4994	398.9	–
328.15 K, m1 = 0.02	410	987.32
328.15 K, m1 = 0.05	409.6	989.63
328.15 K, m1 = 0.0814	412.6	992.01
328.15 K, m1 = 0.1	411.7	992.93
328.15 K, m1 = 0.1028	408.3	993.47
328.15 K, m1 = 0.248	407.8	1004.2
328.15 K, m1 = 0.3973	404.3	1014.83
328.15 K, m1 = 0.4994	405.6	1022.36
333.15 K, m1 = 0.02	416	–
333.15 K, m1 = 0.05	415.7	–
333.15 K, m1 = 0.0814	418.7	–
333.15 K, m1 = 0.1	417.8	–
333.15 K, m1 = 0.1028	414.9	–
333.15 K, m1 = 0.248	414.1	–
333.15 K, m1 = 0.3973	410.5	–
333.15 K, m1 = 0.4994	411.6	–
338.15 K, m1 = 0.02	421	982.18
338.15 K, m1 = 0.05	421.5	984.47
338.15 K, m1 = 0.0814	424.1	986.82
338.15 K, m1 = 0.1	423.2	987.73
338.15 K, m1 = 0.1028	420.6	988.27
338.15 K, m1 = 0.248	419.6	998.91
338.15 K, m1 = 0.3973	416.1	1009.45
338.15 K, m1 = 0.4994	416.9	1016.94
343.15 K, m1 = 0.02	427	–
343.15 K, m1 = 0.05	426.7	–
343.15 K, m1 = 0.0814	429	–
343.15 K, m1 = 0.1	427.9	–
343.15 K, m1 = 0.1028	425.9	–
343.15 K, m1 = 0.248	424.6	–
343.15 K, m1 = 0.3973	421	–
343.15 K, m1 = 0.4994	421.6	–
348.15 K, m1 = 0.02	430.7	976.46
348.15 K, m1 = 0.05	431.2	978.72
348.15 K, m1 = 0.0814	433.3	981.07
348.15 K, m1 = 0.1	431.9	981.98
348.15 K, m1 = 0.1028	430.3	982.51
348.15 K, m1 = 0.248	428.9	993.1
348.15 K, m1 = 0.3973	425.2	1003.55
348.15 K, m1 = 0.4994	425.8	1010.99
353.15 K, m1 = 0.02	435.4	–
353.15 K, m1 = 0.05	435.4	–
353.15 K, m1 = 0.0814	437.2	–
353.15 K, m1 = 0.1	435.3	–
353.15 K, m1 = 0.1028	434.1	–
353.15 K, m1 = 0.248	432.5	–
353.15 K, m1 = 0.3973	428.9	–
353.15 K, m1 = 0.4994	429.3	–
358.15 K, m1 = 0.02	439.4	970.24
358.15 K, m1 = 0.05	439	972.5
358.15 K, m1 = 0.0814	440.6	974.84
358.15 K, m1 = 0.1	438.3	975.72
358.15 K, m1 = 0.1028	437.2	976.24
358.15 K, m1 = 0.248	435.7	986.78
358.15 K, m1 = 0.3973	432	997.2
358.15 K, m1 = 0.4994	432.4	–
363.15 K, m1 = 0.02	442.2	–
363.15 K, m1 = 0.05	441.7	–
363.15 K, m1 = 0.0814	443.4	–
363.15 K, m1 = 0.1	440.5	–
363.15 K, m1 = 0.1028	439.4	–
363.15 K, m1 = 0.248	438.2	–
363.15 K, m1 = 0.3973	434.6	–
363.15 K, m1 = 0.4994	434.8	–
368.15 K, m1 = 0.02	–	963.51
368.15 K, m1 = 0.05	–	965.76
368.15 K, m1 = 0.0814	–	968.11
368.15 K, m1 = 0.1	–	969.08
368.15 K, m1 = 0.1028	–	969.48
368.15 K, m1 = 0.248	–	980
368.15 K, m1 = 0.3973	–	990.36
368.15 K, m1 = 0.4994	–	997.73
